This is an account of results in patent US20250152731A1, “ANTI-TROP2 ANTIBODY COMBINATION THERAPIES AND METHODS OF USE THEREOF” (priority 2021, published 2025).

In one assay the test system is TROP2. Nature of the assay: Immunoblotting of TROP2 protein in breast cancer cell lines. The assay is classed as cell-based, human. The following applies: breast cancer cell lines. The method, then:
(§1) Following treatments, cells were washed with cold PBS and lysed in 1× Laemmli buffer. The protein concentrations in the cell lysates were measured using Pierce BCA protein assay Kit (ThermoFisher). The same amount protein for each sample (20-50 μg/lane) was loaded to SDS-PAGE gel, followed by transferring proteins to a 0.2 μm nitrocellulose membrane (Bio-Rad Laboratories). Membranes were blocked with blocking buffer Blocker Casein in PBS (ThermoFisher) at room temperature for 1 hour, followed by immunoblotting with the primary antibodies in 5% BSA TBST buffer at room temperature overnight. After washing with TBST buffer, the immunoblotting membrane was then probed with the secondary antibodies with fluorescence conjugation. The immunoblots were visualized and the immunoblotting signal intensity quantitated using the Odyssey IR imaging system (Li-Cor Biosciences).
Five cell lines (BCX-011, BCX-010, Sum-159, BCX-010 transfected with control shRNA, and BCX-010 transfected with Zeb1 shRNA) were treated with decitabine (a DNA methyltransferase inhibitor) at 1 μM for 3 days (FIG. 1B). To knockdown Zeb1, BCX-010 cells were transduced with a lentivirus containing Zeb1 shRNA, followed by puromycin selection.
Breast cancer cell lines BCX-010CL, BCX-011CL, and SUM159 cells were treated with decitabine, azacytidine, panobinostat, vorinostat, tazemetostat at […] respectively for 3 days, followed by immunoblotting for E-cad and TROP2 with β-actin as control (FIG. 1D).
The treated cells were lysed. The cell lysate samples were loaded onto SDS-PAGE gel for the western blot. Antibodies ab-214488 and cst-3195 were used to detect TROP2 and E-cadherin respectively. β-actin was used as loading control (FIG. 1C).
A general note: Immunoblotting shows a protein as a band on a membrane.

For assay [1], the system named is DNMT1, DNMT3A, and DNMT3B. As to the kind of experiment: Immunoblotting of DNA methyltransferases (DNMTs). The settings on record: breast cancer cell lines. The assay is classed as cell-based, human. On the procedure:
as §1

Another assay relates to BCX-010 cells. Nature of the assay: Colony formation assay, BCX-010 control and Zeb1 knockdown. Format: cell-based, human. The following applies: BCX-010 control and Zeb1 knockdown cells; decitabine 5 nM, sacituzumab govitecan 20 nM, 14 days. The method, then: FIGS. 7A-7B show a colony assay of BCX-010 cells transfected with control shRNA (FIG. 7A) or Zeb1 shRNA (FIG. 7B) after treatment with vehicle, sacituzumab govitecan (20 nM), and/or decitabine (5 nM) for 14 days. After 14 days, cell colonies formed on the plates, were fixed with 10% formalin, and stained with 0.05% crystal violet. […] Annexin V positive apoptotic cells were measured by flow cytometry. Percentage of apoptotic cells over total cell populations was calculated.
In order to determine the effect of decitabine and/or Zeb1 knockdown treatment on sacituzumab govitecan activity, colony formation assays were performed in BCX-010 breast cancer cells. BCX-010 cells (control and Zeb1 knockdown) were seeded into 6-well plates at 1000 cells/well. Cells were treated with decitabine (5 nM) and/or sacituzumab govitecan ([…]) for 14 days. Culture medium with replaced with culture medium containing fresh drugs twice. After 14 days, cell colonies form on the plates were fixed with 10% formalin and stained with 0.05% crystal violet. Total colony area and colony number were quantified using ImageJ software.

Assay [2] deals with BCX-010, BCX-011 and Sum-159 cells. Nature of the assay: Annexin V flow cytometry apoptosis assay. The assay is classed as cell-based, human. The settings on record: decitabine 1 μM and/or sacituzumab govitecan 0.1 μM, three days; FIGS. 5A-5D.
Description: In order to determine the effect of decitabine and/or Zeb1 knockdown treatment on sacituzumab govitecan activity, apoptosis was measured in breast cancer cell lines. BCX-010 cells (FIG. 5A and FIG. 5B), BCX-011 cells (FIG. 5C) and Sum-159 cells (FIG. 5D) were seeded in 6-cm plates, then treated with decitabine (1 μM) and/or sacituzumab govitecan (0.1 μM) for three days in an apoptosis assay. After the three day treatment, cells were stained with Annexin V. Flow cytometry was performed to sort Annexin V positive cells (apoptotic cells) (FIGS. 5A-5D). Percentage of apoptotic cells was calculated by Annexin V positive cells over total cell populations.
Cells were seeded in 6 cm plates at a density of 3×10^5 cells per well in triplicates for each treatment group. The following day, cells were treated with decitabine and SG at 1 μM and 0.1 μM respectively, or their combination. […] Using Annexin-V-FLUOS Staining Kit (Roche), cells were stained with Annexin V fluorescence and propidium iodide (PI), following manufacturer's protocol. Samples were analyzed by flow cytometry. Percentage of Annexin V positive apoptotic cells were calculated.
In apoptosis assay, cells were treated with decitabine at 1 μM, SG at 0.1 μM, or their combination for 3 days. Annexin V positive apoptotic cells were measured by flow cytometry. Percentage of apoptotic cells over total cell populations was calculated (FIG. 7D).
Another assay concerns Sum-159 cells. Nature of the assay: Colony formation assay, Sum-159. Format: cell-based, human. The settings on record: sacituzumab govitecan 200 nM, decitabine 200 nM. On the procedure:
FIGS. 6A-6E show a colony assay of BCX-010 (FIGS. 6A-6B), BCX-011 (FIG. 6C-6D), and Sum-159 cells ([…]) after treatment with vehicle, sacituzumab govitecan (200 nM), and/or decitabine (200 nM) for 10 days. FIGS. 6A-6C show agar plates after 10 days of colony formation.
In order to determine the effect of decitabine treatment on sacituzumab govitecan activity, colony formation assays were performed in BCX-010 cells (FIGS. 6A-6B), BCX-011 cells (FIG. 6C-6D), and Sum-159 breast cancer cells (FIG. 6E-6F).
Cells were seeded in 6-well plates at a density of 1000 cells per well in triplicates for each treatment group. Next day, cells were treated with single drugs, or combination at the different concentrations. Culture medium was changed with fresh drugs twice a week. Cells were cultured for 3 weeks. Cell colonies were then fixed in 10% formalin and stained with 0.05% crystal violet in 25% methanol. The stained colonies were imaged and total colony area was quantitated using NIH ImageJ v.1.48 software. Effect-based Combination Index (CI) was calculated by inhibition percentage of single drug and combination treatments using Bliss combination model. CI=((EA+EB)−(EA*EB))/EAB, where EA, EB, and EAB are effects of drug A, B and combination AB inhibition percentage. Here the effect is inhibition percentage of colony formation compared to vehicle controls. […]

Assay [3] concerns BCX-010CL and BCX-011CL cells. Nature of the assay: Cell survival assay of SG in TROP2-overexpressing cells. The assay is classed as cell-based, human. The following applies: serial dilutions, 3 days, FIG. 8B. The method, then:
TROP2-overexpressing cells and control cells were treated with SG at concentrations in serial dilutions for 3 days. SG IC50 was calculated.
For TROP2 overexpression, breast cancer cells seeded in 6-well plates were transfected with TROP2 expression plasmid pCMV6-entry-TROP2 using Lipofectamine 3000 Kit. Two days after transfection, cells were treated with G-418 for 2-3 passages.
After G-418 selection, immunoblotting was performed to detect TROP2 expression (FIG. 8A). Next, TROP2-overexpressing cells and control cells were treated with SG at concentrations in serial dilutions for 3 days. SG IC50 was calculated (FIG. 8B).

Assay [4] deals with T1, TROP2 (Trophoblast cell surface antigen 2) (human, UniProt P09758 27-323).
T1 construct: whole, on cells; also called TACSTD2; tumor-associated calcium signal transducer 2
T1 sequence (looked up): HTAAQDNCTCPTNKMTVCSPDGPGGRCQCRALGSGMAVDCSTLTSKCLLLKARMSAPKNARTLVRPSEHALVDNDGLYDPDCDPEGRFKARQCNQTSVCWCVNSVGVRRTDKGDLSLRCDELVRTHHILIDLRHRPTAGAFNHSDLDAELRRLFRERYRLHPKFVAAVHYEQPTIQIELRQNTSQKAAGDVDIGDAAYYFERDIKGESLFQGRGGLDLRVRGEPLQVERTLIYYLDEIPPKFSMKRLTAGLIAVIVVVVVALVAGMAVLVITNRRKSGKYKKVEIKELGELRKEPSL
Nature of the assay: immunofluorescence microscopy, SG-Alexa-488 at 2 ug/ml on BCX cells overexpressing TROP2; signal similar to that on MDA-MB-468 cells with high endogenous TROP2.

Assay [5] concerns the target T1, TROP2 (Trophoblast cell surface antigen …). As to the kind of experiment: conclusion drawn from the examples' data (immunofluorescence, cell assays).
The test system of assay [6] is TROP2 overexpressing cells. As to the kind of experiment: Immunofluorescence of ADC binding on cell membrane. The following applies: 2 μg/ml, 2 hours, room temperature; FIG. 12A. The assay is classed as cell-based, human. The method, then:
ADC drug SG was labeled with alexa fluorescent dye using Alexa Fluo 488 Conjugation Lightening Kit (Abcam, #ab236553), following the manufactory protocol. Final SG-Alexa-488 concentration was 1 μg/μl. To bind ADC to cells, cells were seeded on cover slices in 6-well plates overnight, followed by blocking with 3% BSA/PBS at room temperature for 1 hour. Then cells were incubated with SG-Alexa-488 at 2 μg/ml at room temperature for 2 hours, followed by PBS wash twice. For internalization assay, SG-Alexa-488 was added into the culture medium in the wells at 2 μg/ml for 10 min, 3 hours, and 24 hours. Cells were fixed with 4% paraformaldehyde at room temperature for 15 min, PBS wash twice. The cover slices were mounted onto slide with DAPI counterstaining. Fluorescence on cell surface and in cytoplasm was monitored using Olympus BX51 fluorescent microscope and imaged using Nuance imaging system.

Turning to `CCc1c(C#N)c(SC(C(N)=O)c2ccccc2)nc(N2CCC(N)CC2)c1C#N` (stereo not shown) [GSK-3685032], the “TROP2 expression (DNMT1 specific inhibitor)” value in the assay with TROP2 is listed as “did not upregulate TROP2 expression”. The DNMT1 protein levels entry in assay [1] is listed as “decreased DNMT1 protein levels”.

On to sacituzumab govitecan, for which the colony formation entry in the assay on BCX-010 cells is “inhibited cell colony formation”; with Sum-159 cells, “inhibited cell colony formation in Sum-159 cells”. For the same molecule, the “apoptosis (Annexin V positive cells)” value in [2] is “induced cell apoptosis in BCX-010 and Sum-159 cells”. In addition, in assay [3], the “cell sensitivity to SG (IC50) in TROP2-overexpressing vs control cells” value is on record as “Overexpression of TROP2 sensitizes cells”.

B1: sacituzumab govitecan-Alexa-488 (antibody, V domains shown)
VH: QVQLQQSGSELKKPGASVKVSCKASGYTFTNYGMNWVKQAPGQGLKWMGWINTYTGEPTYTDDFKGRFAFSLDTSVSTAYLQISSLKADDTAVYFCARGGFGSSYWYFDVWGQGSLVTVSS
VL: DIQLTQSPSSLSASVGDRVSITCKASQDVSIAVAWYQQKPGKAPKLLIYSASYRYTGVPDRFSGSGSGTDFTLTISSLQPEDFAVYYCQQHYITPLTFGAGTKVEIK
modifications: conjugated to SN-38 (antibody drug conjugate) and labelled with Alexa Fluor 488; sites not stated
Consider B1, for which the binding result in [4] is “binds”.

B2: sacituzumab govitecan (antibody, V domains shown)
VH: QVQLQQSGSELKKPGASVKVSCKASGYTFTNYGMNWVKQAPGQGLKWMGWINTYTGEPTYTDDFKGRFAFSLDTSVSTAYLQISSLKADDTAVYFCARGGFGSSYWYFDVWGQGSLVTVSS
VL: DIQLTQSPSSLSASVGDRVSITCKASQDVSIAVAWYQQKPGKAPKLLIYSASYRYTGVPDRFSGSGSGTDFTLTISSLQPEDFAVYYCQQHYITPLTFGAGTKVEIK
modifications: conjugated to SN-38 (antibody drug conjugate); sites not stated
notes: also called SG; Trodelvy
For B2, the binding result in assay [5] is given as “binds”.

B3: SG ADC labeled with Alexa-Fluo-488 (conjugate)
VH: QVQLQQSGSELKKPGASVKVSCKASGYTFTNYGMNWVKQAPGQGLKWMGWINTYTGEPTYTDDFKGRFAFSLDTSVSTAYLQISSLKADDTAVYFCARGGFGSSYWYFDVWGQGSLVTVSS
VL: DIQLTQSPSSLSASVGDRVSITCKASQDVSIAVAWYQQKPGKAPKLLIYSASYRYTGVPDRFSGSGSGTDFTLTISSLQPEDFAVYYCQQHYITPLTFGAGTKVEIK
Turning to B3, in [6], the “immunofluorescent signal on cell membrane, TROP2-overexpressing cells” value is “strong immunofluorescent signal on cell membrane” and the “immunofluorescent signal on cell membrane, control cells” value is “negative signal”.
